The text below walks through data of patent publication US7507792B2, “MDA-7 proteins and methods of use thereof” (The Trustees of Columbia University In The City of New York, priority 1993, dated 2009).

Entries after “also recorded” stand apart in the source; their conditions may differ.

Assay type in all cases: cell-based, human
One experiment deals with H0-1 cells. Nature of the experiment: Northern blotting of H0-1 RNA probed with mda cDNA clones. The following applies: 24 hours. On the procedure:
Ten micrograms of total cellular RNA were separated on a 1% agarose gel, transferred to nylon membranes and then hybridized individually with radioactive probes prepared using appropriate inserts from the cDNA clones.
The mass excision of the library was performed using ExAssist helper phage as described above. The SOLR strain of Escherichia coli and cDNA phagemids were mixed at 37° C. for 15 min and plated onto LB plates containing ampicillin and IPTG/X-gal. White colonies were chosen at random, isolated and grown in LB medium. Plasmid minireps and restriction enzyme digestions were performed to confirm the presence of inserts. The inserts were isolated and used as robes for Northern blotting analysis (5,25). […] Radiolabeled probes were generated by random oligonucleotide priming (25). Prehybridization, hybridization, posthybridization washes, and autoradiography were performed as described (5,18,25).

The subject of another experiment is wild-type p53 protein. Nature of the experiment: Immunoprecipitation of p53 in H0-1 cells. The following applies: IFN-β 2000 units/ml, MEZ 10 ng/ml. On the procedure: (§1) Immunoprecipitation analyses were performed as described previously (Duigou et al., 1991; Su et al., 1993; Jiang et al., 1994b). […] Cultures were starved of methionine for 1 h at 37° C. in methionine-free medium, cells were concentrated by pelleting and labeled for 1 h (p53) or 4 h (p21 and Actin) at 37° in 1 ml of the same medium with 100 μCi of [^35S] (NEN; Express ^35S). After labeling, the cells were washed twice with ice-cold phosphate-buffered saline and lysed for 1 h on ice by the addition of RIPC (20 mM Tris-base, pH 7.5, 500 mM NaCl, 0.05% Nonidet P-40, 100 μg/ml phenylmethylsulfonyl fluoride and 0.02% sodium azide). The lysate was clarified by centrifugation in an Eppendorf microfuge at 10,000×g for 10 min at 4° C. H0-1 samples containing 4×10^6 counts were incubated with 2 μg of p53 monoclonal antibody (Ab1; PAb421) (Oncogene Sciences), WAF1/CIP1 (C-19) (Santa Cruz Biotechnology) (or MDA-6 peptide-derived) rabbit polyclonal IgG or actin monoclonal antibody (Oncogene Sciences) with rocking at 4° C. for 24 h. Labeled cell lysates were also prepared from F0-1, L0-1, SH-1, WM239, FM516-SV, SW480, MeWo, human skin fibroblasts and Saos-2 cells. Samples containing 4×10^6 counts were incubated with 2 μg of the p53 monoclonal antibody Ab1 (PAb421) or Ab3 (PAb240) (Oncogene Sciences). […]

A further experiment deals with p21 protein. Nature of the experiment: Immunoprecipitation of p21 in H0-1 cells. The conditions noted are these: IFN-β 2000 units/ml, MEZ 10 ng/ml. The procedure:
as §1

Consider `C=C(C)[C@@]12O[C@@]3(c4ccccc4)O[C@@H]1[C@@H]1[C@@H]4O[C@]4(CO)[C@@H](O)[C@]4(O)C(=O)C(C)=C[C@H]4[C@@]1(O3)[C@H](C)[C@H]2OC(=O)/C=C/C=C/c1ccccc1` [MEZ, mezerein], for which the mda-3 expression entry with H0-1 cells is “induced; also recorded: Increased expression”. For the same compound, the “wild-type p53 protein level” value in the experiment on wild-type p53 protein (24 h) is given as “no significant change”; in the experiment with wild-type p53 protein (over 48, 72, 96 h), “decreases”. Also, the “p21 mRNA and protein” value in the experiment with p21 protein (24 h) is “induced”. Also, in the experiment on p21 protein (over 48, 72, 96 h), the p21 protein level entry was “increases”.
